Values joined by “and” are separate entries in the source; they are usually repeats but may differ in a detail not shown here. Equal entries are not always repeated. ± gives the expanded uncertainty stated by the source.
Conditions: 323.16 K, Liquid, Vibrating tube method

Measured: mass density

CCCCCC(=O)OCC(COC(=O)CCCCC)(COC(=O)CCCCC)COC(=O)CCCCC [pentaerythritol tetrahexanoate]
984.6 ± 1.2 kg/m3: 17594 kPa | 17623 kPa | 17706 kPa | 17736 kPa | 17826 kPa
987.7 ± 1.2 kg/m3: 22616 kPa | 22641 kPa | 22739 kPa | 22760 kPa | 22786 kPa
986.8 ± 1.2 kg/m3: 21161 kPa | 21187 kPa | 21214 kPa | 21316 kPa | 21342 kPa
984 ± 1.2 kg/m3: 16673 kPa | 16730 kPa | 16755 kPa | 16784 kPa | 16815 kPa | 16841 kPa
986.1 ± 1.2 kg/m3: 19891 kPa | 20040 kPa | 20067 kPa | 20130 kPa | 20188 kPa | 20251 kPa | 20314 kPa
984.8 ± 1.2 kg/m3: 17913 kPa | 17940 kPa | 17970 kPa | 18001 kPa | 18032 kPa | 18088 kPa | 18119 kPa | 18312 kPa
988.5 ± 1.2 kg/m3: 23858 kPa | 23930 kPa | 24028 kPa | 24053 kPa | 24079 kPa | 24103 kPa
987 ± 1.2 kg/m3: 21289 kPa | 21418 kPa | 21445 kPa | 21494 kPa | 21626 kPa | 21654 kPa
985.1 ± 1.2 kg/m3: 18452 kPa | 18481 kPa | 18510 kPa | 18565 kPa | 18679 kPa
988.3 ± 1.2 kg/m3: 23447 kPa | 23473 kPa | 23522 kPa | 23591 kPa | 23615 kPa | 23661 kPa | 23686 kPa | 23761 kPa | 23782 kPa
983.8 ± 1.2 kg/m3 and 983.7 ± 1.2 kg/m3: 16338 kPa | 16342 kPa
988.9 ± 1.2 kg/m3: 24480 kPa | 24507 kPa
987.2 ± 1.2 kg/m3: 21755 kPa | 21780 kPa | 21806 kPa | 21832 kPa | 21854 kPa | 21902 kPa | 21928 kPa | 21980 kPa | 22005 kPa
985.8 ± 1.2 kg/m3: 19380 kPa | 19545 kPa | 19718 kPa
983.6 ± 1.2 kg/m3: 16347 kPa
986.4 ± 1.2 kg/m3: 20449 kPa | 20477 kPa | 20506 kPa | 20535 kPa | 20587 kPa | 20674 kPa | 20698 kPa | 20727 kPa | 20756 kPa
985.7 ± 1.2 kg/m3: 19434 kPa | 19458 kPa | 19516 kPa | 19574 kPa
987.9 ± 1.2 kg/m3: 22591 kPa | 22910 kPa | 22936 kPa | 22983 kPa | 23035 kPa | 23083 kPa
988.2 ± 1.2 kg/m3: 23319 kPa | 23346 kPa | 23397 kPa | 23424 kPa | 23498 kPa | 23542 kPa | 23566 kPa
987.8 ± 1.2 kg/m3: 22688 kPa | 22713 kPa | 22812 kPa | 22838 kPa | 22858 kPa | 22884 kPa
988 ± 1.2 kg/m3: 22957 kPa | 23009 kPa | 23061 kPa | 23162 kPa | 23215 kPa | 23238 kPa | 23292 kPa
987.4 ± 1.2 kg/m3: 21954 kPa | 22053 kPa | 22079 kPa | 22105 kPa | 22182 kPa | 22231 kPa
984.4 ± 1.2 kg/m3: 17216 kPa | 17278 kPa | 17303 kPa | 17365 kPa | 17396 kPa | 17452 kPa | 17481 kPa | 17510 kPa
983.9 ± 1.2 kg/m3: 16562 kPa | 16620 kPa | 16644 kPa
985.5 ± 1.2 kg/m3: 18987 kPa | 19017 kPa | 19405 kPa
983.7 ± 1.2 kg/m3 and 983.8 ± 1.2 kg/m3: 16341 kPa
984.7 ± 1.2 kg/m3: 17652 kPa | 17766 kPa | 17796 kPa | 17852 kPa
983.7 ± 1.2 kg/m3: 16340 kPa | 16370 kPa | 16396 kPa | 16427 kPa | 16452 kPa
986.7 ± 1.2 kg/m3: 20925 kPa | 21013 kPa | 21035 kPa | 21061 kPa | 21087 kPa | 21113 kPa | 21139 kPa
986.2 ± 1.2 kg/m3: 20098 kPa | 20162 kPa | 20219 kPa | 20339 kPa | 20396 kPa
988.7 ± 1.2 kg/m3: 24202 kPa | 24303 kPa | 24355 kPa | 24410 kPa
988.4 ± 1.2 kg/m3: 23641 kPa | 23710 kPa | 23736 kPa | 23807 kPa | 23832 kPa | 23879 kPa | 23904 kPa | 23956 kPa
987.1 ± 1.2 kg/m3: 21550 kPa | 21572 kPa | 21599 kPa | 21681 kPa | 21708 kPa | 21730 kPa
989 ± 1.2 kg/m3: 24535 kPa | 24589 kPa | 24612 kPa
987.3 ± 1.2 kg/m3: 21880 kPa | 22031 kPa | 22131 kPa | 22154 kPa
984.5 ± 1.2 kg/m3: 17540 kPa | 17565 kPa | 17682 kPa
984.2 ± 1.2 kg/m3: 16925 kPa | 16955 kPa | 16986 kPa | 17041 kPa | 17102 kPa | 17128 kPa
988.8 ± 1.2 kg/m3: 24281 kPa | 24329 kPa | 24382 kPa | 24458 kPa | 24562 kPa
985.6 ± 1.2 kg/m3: 19100 kPa | 19129 kPa | 19486 kPa
985.3 ± 1.2 kg/m3: 18789 kPa
985.9 ± 1.2 kg/m3: 19599 kPa | 19628 kPa | 19658 kPa | 19688 kPa | 19801 kPa | 19922 kPa
988.6 ± 1.2 kg/m3: 23981 kPa | 24006 kPa | 24128 kPa | 24154 kPa | 24180 kPa | 24228 kPa | 24254 kPa | 24431 kPa
985 ± 1.2 kg/m3: 18203 kPa | 18284 kPa | 18341 kPa | 18370 kPa | 18394 kPa | 18423 kPa | 18540 kPa
984.3 ± 1.2 kg/m3: 17159 kPa | 17192 kPa | 17248 kPa | 17334 kPa | 17427 kPa
983.8 ± 1.2 kg/m3: 16482 kPa | 16510 kPa | 16538 kPa | 16590 kPa
986.6 ± 1.2 kg/m3: 20811 kPa | 20955 kPa
984.1 ± 1.2 kg/m3: 16702 kPa | 16870 kPa | 16900 kPa | 17011 kPa | 17072 kPa
987.5 ± 1.2 kg/m3: 22208 kPa
986 ± 1.2 kg/m3: 19746 kPa | 19776 kPa | 19830 kPa | 19861 kPa | 19952 kPa | 19978 kPa | 20009 kPa
984.9 ± 1.2 kg/m3: 17882 kPa | 18058 kPa | 18145 kPa | 18174 kPa | 18231 kPa | 18260 kPa
986.5 ± 1.2 kg/m3: 20616 kPa | 20787 kPa | 20841 kPa | 20871 kPa | 20984 kPa
986.9 ± 1.2 kg/m3: 21236 kPa | 21262 kPa | 21368 kPa | 21391 kPa | 21467 kPa | 21522 kPa
988.1 ± 1.2 kg/m3: 23110 kPa | 23136 kPa | 23189 kPa | 23264 kPa | 23370 kPa
985.4 ± 1.2 kg/m3: 18876 kPa | 18900 kPa | 18928 kPa | 18958 kPa | 19042 kPa | 19071 kPa
987.6 ± 1.2 kg/m3: 22541 kPa | 22566 kPa
986.3 ± 1.2 kg/m3: 20282 kPa | 20558 kPa | 20645 kPa
985.2 ± 1.2 kg/m3: 18594 kPa | 18624 kPa | 18649 kPa | 18709 kPa | 18737 kPa | 18761 kPa | 18818 kPa | 18846 kPa
